Experimental data published in article PMC6691788, “Design and synthesis of phthalazine-based compounds as potent anticancer agents with potential antiangiogenic activity via VEGFR-2 inhibition” (Journal of Enzyme Inhibition and Medicinal Chemistry, 2019).

Legend:
VEGFR-2 tyrosine kinase = target: T1, VEGFR-2 tyrosine kinase (Homo sapiens, UniProt P35968); assay: In vitro VEGFR-2 tyrosine kinase assay (BPS Bioscience); type: biochemical; conditions: read-out: VEGFR-2 % inhibition; 10 μM concentration
T1 construct: purchased BPS Bioscience 40301
Method in brief: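 For IC50, ADP formation after a 30-min 30 °C reaction was detected by ADP-Glo luminescence in duplicate, blank-subtracted and fitted as log inhibitor versus normalised response. The 10 µM single-dose test instead measured remaining ATP (Kinase-Glo Plus) after 40 min at 30 °C with poly(Glu,Tyr) substrate, 10 μM ATP, pH 7.4, 1% DMSO.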

SW-620 = assay: NCI 60 cell panel SRB screen; type: cell-based; conditions: Homo sapiens
NCI/ADR-RES = assay: NCI 60 cell panel SRB screen; type: cell-based; conditions: Homo sapiens
SN12C = assay: NCI 60 cell panel SRB screen; type: cell-based; conditions: Homo sapiens
MOLT-4 = assay: NCI 60 cell panel SRB screen; type: cell-based; conditions: Homo sapiens, MOLT-4, 5 log dose
SF-268 = assay: NCI 60 cell panel SRB screen; type: cell-based; conditions: Homo sapiens
MDA-MB 231/ATCC = assay: NCI 60 cell panel SRB screen; type: cell-based; conditions: Homo sapiens
A549/ATCC = assay: NCI 60 cell panel SRB screen; type: cell-based; conditions: Homo sapiens
HOP-92 = assay: NCI 60 cell panel SRB screen; type: cell-based; conditions: Homo sapiens
HT29 = assay: NCI 60 cell panel SRB screen; type: cell-based; conditions: Homo sapiens, HT-29
OVCAR-4 = assay: NCI 60 cell panel SRB screen; type: cell-based; conditions: Homo sapiens
CAKI-1 = assay: NCI 60 cell panel SRB screen; type: cell-based, human
A498 = assay: NCI 60 cell panel SRB screen; type: cell-based; conditions: Homo sapiens
NCI-H322M = assay: NCI 60 cell panel SRB screen; type: cell-based; conditions: Homo sapiens
UACC-257 = assay: NCI 60 cell panel SRB screen; type: cell-based; conditions: Homo sapiens
HOP-62 = assay: NCI 60 cell panel SRB screen; type: cell-based; conditions: Homo sapiens
UO-31 = assay: NCI 60 cell panel SRB screen; type: cell-based; conditions: Homo sapiens
OVCAR-8 = assay: NCI 60 cell panel SRB screen; type: cell-based; conditions: Homo sapiens
SK-MEL-28 = assay: NCI 60 cell panel SRB screen; type: cell-based; conditions: Homo sapiens
HS 578T = assay: NCI 60 cell panel SRB screen; type: cell-based; conditions: Homo sapiens
[1] = 5 log dose, 48 h, read-out: LC50 (the source's name)
[2] = single dose 10 μM, read-out: percent cell growth promotion

T1 sequence (P35968 20-1356): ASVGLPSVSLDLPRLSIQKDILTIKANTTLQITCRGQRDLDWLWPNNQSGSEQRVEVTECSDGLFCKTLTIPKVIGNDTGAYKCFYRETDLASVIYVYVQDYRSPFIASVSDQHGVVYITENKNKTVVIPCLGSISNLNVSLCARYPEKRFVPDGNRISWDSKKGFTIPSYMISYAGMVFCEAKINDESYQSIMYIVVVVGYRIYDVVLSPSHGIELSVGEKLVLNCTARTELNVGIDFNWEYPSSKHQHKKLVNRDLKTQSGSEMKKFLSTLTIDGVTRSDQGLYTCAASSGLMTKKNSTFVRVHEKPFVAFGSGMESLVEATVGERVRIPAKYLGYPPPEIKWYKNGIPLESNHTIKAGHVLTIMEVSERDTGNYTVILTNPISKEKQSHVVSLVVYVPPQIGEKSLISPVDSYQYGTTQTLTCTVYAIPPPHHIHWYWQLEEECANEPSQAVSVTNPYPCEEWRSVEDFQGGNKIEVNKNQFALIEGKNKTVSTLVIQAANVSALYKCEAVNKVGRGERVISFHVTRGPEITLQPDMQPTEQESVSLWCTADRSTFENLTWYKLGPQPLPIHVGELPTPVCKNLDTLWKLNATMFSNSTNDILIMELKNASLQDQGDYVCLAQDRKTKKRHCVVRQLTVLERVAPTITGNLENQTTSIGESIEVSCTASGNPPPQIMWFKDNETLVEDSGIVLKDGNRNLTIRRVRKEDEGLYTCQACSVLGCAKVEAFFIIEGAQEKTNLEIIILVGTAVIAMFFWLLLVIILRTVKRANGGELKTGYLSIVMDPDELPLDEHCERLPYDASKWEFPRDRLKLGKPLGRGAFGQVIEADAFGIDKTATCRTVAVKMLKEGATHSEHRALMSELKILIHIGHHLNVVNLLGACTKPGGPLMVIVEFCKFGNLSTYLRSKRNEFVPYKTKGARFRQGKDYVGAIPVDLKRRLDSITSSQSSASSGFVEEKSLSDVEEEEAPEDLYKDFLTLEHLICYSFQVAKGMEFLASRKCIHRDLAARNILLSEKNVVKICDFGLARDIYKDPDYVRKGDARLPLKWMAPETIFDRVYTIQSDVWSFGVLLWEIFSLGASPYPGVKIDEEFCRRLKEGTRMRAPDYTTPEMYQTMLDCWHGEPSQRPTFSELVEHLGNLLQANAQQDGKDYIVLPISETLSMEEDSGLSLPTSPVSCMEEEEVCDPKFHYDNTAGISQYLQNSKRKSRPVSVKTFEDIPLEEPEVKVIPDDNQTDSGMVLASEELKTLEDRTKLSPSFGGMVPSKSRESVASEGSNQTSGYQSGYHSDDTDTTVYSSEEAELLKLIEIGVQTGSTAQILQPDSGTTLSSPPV

O=C(Nc1ccccc1)Nc1ccc(Oc2nnc(Cl)c3ccccc23)cc1 [Compound 13a, 1–(4-(4-Chlorophthalazin-1-yloxy)phenyl)-3-phenylurea]
inhibition at 10 µM (VEGFR-2 tyrosine kinase): 24% | GI50 (SW-620; SW-620, 5 log dose): 8.41 µM | IC (TGI) (SW-620; SW-620, 5 log dose): > 25 µM | CC50 (SW-620; SW-620, 5 log dose, 48 h, read-out: LC50 (the source's name)): > 25 µM | activity at 10 µM (SW-620; SW-620, single dose 10 μM, read-out: percent cell growth promotion): 73.4% | GI50 (NCI/ADR-RES; 5 log dose): 2.63 µM | IC (TGI) (NCI/ADR-RES; 5 log dose): 6.39 µM | CC50 (NCI/ADR-RES; [1]): 15.5 µM | activity at 10 µM (NCI/ADR-RES; [2]): 16.9% | GI50 (SN12C; 5 log dose): 6.72 µM | IC (TGI) (SN12C; 5 log dose): > 25 µM | CC50 (SN12C; [1]): > 25 µM | activity at 10 µM (SN12C; [2]): 53.7% | GI50 (MOLT-4): 2.6 µM | IC (TGI) (MOLT-4): 11.4 µM | CC50 (MOLT-4; 48 h, read-out: LC50 (the source's name)): > 25 µM | GI50 (SF-268; SF-268, 5 log dose): 2.89 µM | IC (TGI) (SF-268; SF-268, 5 log dose): 7.57 µM | CC50 (SF-268; SF-268, 5 log dose, 48 h, read-out: LC50 (the source's name)): 19.8 µM | activity at 10 µM (SF-268; SF-268, single dose 10 μM, read-out: percent cell growth promotion): 25.9% | GI50 (MDA-MB 231/ATCC; MDA-MB-231): 4.76 µM | IC (TGI) (MDA-MB 231/ATCC; MDA-MB-231, read-out: TGI): 12.3 µM | activity at 10 µM (MDA-MB 231/ATCC; MDA-MB-231, read-out: percent cell growth promotion): 32.1% | CC50 (MDA-MB 231/ATCC; MDA-MB-231, MDA-MDA 231/ATCC, 5 log dose, 48 h, read-out: LC50 (the source's name)): > 25 µM | GI50 (A549/ATCC; 5 log dose): 3.47 µM | IC (TGI) (A549/ATCC; 5 log dose): 18.4 µM | LC50 (concentration killing 50% of cells) (A549/ATCC; 5 log dose, 48 h): > 25 µM | activity at 10 µM (A549/ATCC; [2]): 11.2% | GI50 (HOP-92; HOP-92, 5 log dose): 3.09 µM | IC (TGI) (HOP-92; HOP-92, 5 log dose): 11.3 µM | CC50 (HOP-92; HOP-92, 5 log dose, 48 h, read-out: LC50 (the source's name)): > 25 µM | activity at 10 µM (HOP-92; HOP-92, single dose 10 μM, read-out: percent cell growth promotion): -7.51% | GI50 (HT29; HT29, 5 log dose): 5.26 µM | IC (TGI) (HT29; HT29, 5 log dose): > 25 µM | CC50 (HT29; HT29, 5 log dose, 48 h, read-out: LC50 (the source's name)): > 25 µM | activity at 10 µM (HT29; HT29, single dose 10 μM, read-out: percent cell growth promotion): 23.8% | GI50 (OVCAR-4; OVCAR-4, 5 log dose): 1.73 µM | IC (TGI) (OVCAR-4; OVCAR-4, 5 log dose): 12.2 µM | CC50 (OVCAR-4; OVCAR-4, 5 log dose, 48 h, read-out: LC50 (the source's name)): > 25 µM | activity at 10 µM (OVCAR-4; OVCAR-4, single dose 10 μM, read-out: percent cell growth promotion): 0.22% | TGI (CAKI-1; CAKI-1, 5 log dose): 14.3 µM | GI50 (CAKI-1; Homo sapiens, CAKI-1, 5 log dose): 3.34 µM | CC50 (CAKI-1; Homo sapiens, CAKI-1, 5 log dose, 48 h, read-out: LC50 (the source's name)): > 25 µM | activity at 10 µM (CAKI-1; Homo sapiens, CAKI-1, single dose 10 μM, read-out: percent cell growth promotion): 84.4% | GI50 (A498; A498, 5 log dose): 3.45 µM | IC (TGI) (A498; A498, 5 log dose): 13.1 µM | CC50 (A498; A498, 5 log dose, 48 h, read-out: LC50 (the source's name)): > 25 µM | activity at 10 µM (A498; A498, single dose 10 μM, read-out: percent cell growth promotion): 49.2% | GI50 (NCI-H322M; 5 log dose): 2.19 µM | IC (TGI) (NCI-H322M; 5 log dose): > 25 µM | CC50 (NCI-H322M; [1]): > 25 µM | activity at 10 µM (NCI-H322M; [2]): 47.3% | GI50 (UACC-257; UACC-257): 3.96 µM | IC (TGI) (UACC-257; UACC-257, read-out: TGI): > 25 µM | activity at 10 µM (UACC-257; UACC-257, read-out: percent cell growth promotion): 22% | CC50 (UACC-257; UACC-257, 5 log dose, 48 h, read-out: LC50 (the source's name)): > 25 µM | GI50 (HOP-62; HOP-62, 5 log dose): 2.52 µM | IC (TGI) (HOP-62; HOP-62, 5 log dose): 65.4 µM | CC50 (HOP-62; HOP-62, 5 log dose, 48 h, read-out: LC50 (the source's name)): 17 µM | activity at 10 µM (HOP-62; HOP-62, single dose 10 μM, read-out: percent cell growth promotion): -43.4% | GI50 (UO-31; UO-31, 5 log dose): 3.98 µM | IC (TGI) (UO-31; UO-31, 5 log dose): 19.6 µM | CC50 (UO-31; UO-31, 5 log dose, 48 h, read-out: LC50 (the source's name)): > 25 µM | activity at 10 µM (UO-31; UO-31, single dose 10 μM, read-out: percent cell growth promotion): 34.9% | GI50 (OVCAR-8; OVCAR-8, 5 log dose): 2.6 µM | IC (TGI) (OVCAR-8; OVCAR-8, 5 log dose): 6.53 µM | CC50 (OVCAR-8; OVCAR-8, 5 log dose, 48 h, read-out: LC50 (the source's name)): 16.4 µM | activity at 10 µM (OVCAR-8; OVCAR-8, single dose 10 μM, read-out: percent cell growth promotion): 15.5% | GI50 (SK-MEL-28; SK-MEL-28): 3.57 µM | IC (TGI) (SK-MEL-28; SK-MEL-28, read-out: TGI): 12.7 µM | activity at 10 µM (SK-MEL-28; SK-MEL-28, read-out: percent cell growth promotion): 44.2% | CC50 (SK-MEL-28; SK-MEL-28, 5 log dose, 48 h, read-out: LC50 (the source's name)): > 25 µM | GI50 (HS 578T; Hs-578T): 2.12 µM | IC (TGI) (HS 578T; Hs-578T, read-out: TGI): 10.4 µM | activity at 10 µM (HS 578T; Hs-578T, read-out: percent cell growth promotion): 1.19% | CC50 (HS 578T; HS 578T, 5 log dose, 48 h, read-out: LC50 (the source's name)): > 25 µM
